Reference: ChEMBL document CHEMBL1201862, “PubChem BioAssay data set” (2004)
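How tested: cells in 96-well plates exposed to compound for 48 hours at five concentrations. Here, GI50 denotes the concentration required for 50% inhibition of growth.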 The source made the active and inactive calls. Rule as the data show it: active = GI50 up to about 1.1 µM and inactive = higher.

Experiments:
Test in all cases: NCI anticancer screen, dose series, 48 h
NCI-H23 = test system: NCI-H23
SN12C = test system: SN12C
K562 = test system: K562
MOLT-4 = test system: MOLT-4
A549 = test system: A549
HCT-15 = test system: HCT-15
OVCAR-5 = test system: OVCAR-5
TK-10 = test system: TK-10
SK-OV-3 = test system: SK-OV-3
786-0 = test system: 786-0
SNB-78 = test system: SNB-78
HCT-116 = test system: HCT-116
HOP-18 = test system: HOP-18
HL-60 = test system: HL-60
Malme-3M = test system: Malme-3M
NCI-H460 = test system: NCI-H460
NCI-H522 = test system: NCI-H522
SF-268 = test system: SF-268
OVCAR-4 = test system: OVCAR-4
SF-539 = test system: SF-539
HOP-62 = test system: HOP-62
IGROV-1 = test system: IGROV-1
HCC 2998 = test system: HCC 2998
SNB-19 = test system: SNB-19
UACC-257 = test system: UACC-257
DLD-1 = test system: DLD-1
DMS-273 = test system: DMS-273
M14 = test system: M14
A498 = test system: A498
DMS-114 = test system: DMS-114
SK-MEL-5 = test system: SK-MEL-5
SK-MEL-2 = test system: SK-MEL-2
SW-620 = test system: SW-620
SNB-75 = test system: SNB-75
U-251 = test system: U-251
COLO 205 = test system: COLO 205
HT-29 = test system: HT-29
ACHN = test system: ACHN
SF-295 = test system: SF-295
KM12 = test system: KM12
OVCAR-3 = test system: OVCAR-3
XF498 = test system: XF498
UACC-62 = test system: UACC-62
EKVX = test system: EKVX
LOX IMVI = test system: LOX IMVI
OVCAR-8 = test system: OVCAR-8
CAKI-1 = test system: CAKI-1
RXF 393 = test system: RXF 393
SK-MEL-28 = test system: SK-MEL-28
NCI-H226 = test system: NCI-H226
M19-MEL = test system: M19-MEL
CCRF-CEM = test system: CCRF-CEM
KM-20L2 = test system: KM-20L2
LXFL 529 = test system: LXFL 529

In the case of Cc1c(C(=O)C/C(=N/NC(=O)c2ccccc2O)C(=O)Nc2ccccc2C(C)C)[n+]([O-])c2ccccc2[n+]1[O-], the GI50 (NCI-H23) was 19.4 µM (inactive), the GI50 (SN12C) was 43.8 µM (inactive) and the GI50 (K562) was 33.7 µM (inactive). The GI50 (MOLT-4) was 3.2 µM (inactive), the GI50 (A549) was 34.7 µM (inactive) and the GI50 (HCT-15) was 30.3 µM. For the same compound, the GI50 (OVCAR-5) was > 100 µM (inactive), the GI50 (TK-10) was > 100 µM (inactive) and the GI50 (SK-OV-3) was > 100 µM (inactive). For the same compound, the GI50 (786-0) was 49.7 µM (inactive), the GI50 (SNB-78) was 84.7 µM (inactive) and the GI50 (HCT-116) was 27.7 µM (inactive). For the same compound, the GI50 (HOP-18) was > 100 µM (inactive), the GI50 (HL-60) was 3.01 µM (inactive) and the GI50 (Malme-3M) was 48.6 µM (inactive). The GI50 (NCI-H460) was 31.2 µM (inactive), the GI50 (NCI-H522) was 20.9 µM (inactive) and the GI50 (SF-268) was 33.9 µM (inactive). For the same compound, the GI50 (OVCAR-4) was 31.8 µM (inactive), the GI50 (SF-539) was 40.6 µM (inactive) and the GI50 (HOP-62) was > 100 µM (inactive). The GI50 (IGROV-1) was 28.3 µM (inactive), the GI50 (HCC 2998) was 52.5 µM (inactive) and the GI50 (SNB-19) was > 100 µM (inactive). The GI50 (UACC-257) was 28.1 µM (inactive), the GI50 (DLD-1) was 31.8 µM (inactive) and the GI50 (DMS-273) was 31.8 µM (inactive). For the same compound, the GI50 (M14) was 31 µM (inactive), the GI50 (A498) was > 100 µM (inactive) and the GI50 (DMS-114) was 23.1 µM (inactive). For the same compound, the GI50 (SK-MEL-5) was 43 µM (inactive), the GI50 (SK-MEL-2) was 52.2 nM (active) and the GI50 (SW-620) was 35.4 µM (inactive). For the same compound, the GI50 (SNB-75) was > 100 µM (inactive), the GI50 (U-251) was 45 µM (inactive) and the GI50 (COLO 205) was 31.7 µM (inactive). The GI50 (HT-29) was 43.6 µM (inactive), the GI50 (ACHN) was 36.6 µM (inactive) and the GI50 (SF-295) was 56.9 µM (inactive). For the same compound, the GI50 (KM12) was 53.6 µM (inactive), the GI50 (OVCAR-3) was 25.8 µM (inactive) and the GI50 (XF498) was > 100 µM (inactive). The GI50 (UACC-62) was 20 µM (inactive), the GI50 (EKVX) was 47.4 µM (inactive) and the GI50 (LOX IMVI) was 32.1 µM (inactive). The GI50 (OVCAR-8) was 29.6 µM (inactive), the GI50 (CAKI-1) was 30.8 µM (inactive) and the GI50 (RXF 393) was 75.3 µM (inactive). The GI50 (SK-MEL-28) was 69.7 µM (inactive), the GI50 (NCI-H226) was > 100 µM (inactive) and the GI50 (M19-MEL) was 46.5 µM (inactive). The GI50 (CCRF-CEM) was 1.47 µM (inactive), the GI50 (KM-20L2) was 39.7 µM (inactive) and the GI50 (LXFL 529) was 25.1 µM (inactive).
